Assay results reported in ChEMBL document CHEMBL4680147, “Discovery of 6'-chloro-N-methyl-5'-(phenylsulfonamido)-[3,3'-bipyridine]-5-carboxamide (CHMFL-PI4K-127) as a novel Plasmodium falciparum PI(4)K inhibitor with potent antimalarial activity against both blood and liver stages of Plasmodium” (Eur J Med Chem, 2020).

What was measured:
[1] = system: Plasmodium falciparum; experiment: Antimalarial activity against sulphadoxine-resistant blood stage Plasmodium falciparum 3D7 infected in human O+ erythrocytes incubated for 72 hrs by SYBR Green 1 dye based fluorescence assay; type: functional, organism-based; conditions: 3D7, Erythrocyte
[2] = Inhibition of recombinant His-tagged Plasmodium falciparum 3D7 PI4K expressed in baculovirus infected Sf9 cells using PI:PS as substrate incubated for 1 hr in presence of ATP by ADP-Glo kinase assay
[3] = system: Plasmodium falciparum; experiment: Antimalarial activity against pyrimethamine/chloroquine resistant Plasmodium falciparum CP286 infected in human O+ erythrocytes incubated for 72 hrs by SYBR Green 1 dye based fluorescence assay; type: functional, organism-based; conditions: CP286, Erythrocyte
[4] = molecular target: Phosphatidylinositol 4-kinase alpha (Homo sapiens, UniProt P42356); experiment: Inhibition of human PI4K3alpha by ADP-Glo kinase assay
[5] = molecular target: Phosphatidylinositol 3-kinase catalytic subunit type 3 (Homo sapiens, UniProt Q8NEB9); experiment: Inhibition of human VPS34 by ADP-Glo kinase assay
[6] = system: Plasmodium falciparum; experiment: Antimalarial activity against chloroquine resistant Plasmodium falciparum D10 infected in human O+ erythrocytes incubated for 72 hrs by SYBR Green 1 dye based fluorescence assay; type: functional, organism-based; conditions: D10, Erythrocyte
[7] = system: Plasmodium falciparum; experiment: Antimalarial activity against artemisinin resistant Plasmodium falciparum 803 infected in human O+ erythrocytes incubated for 72 hrs by SYBR Green 1 dye based fluorescence assay; type: functional, organism-based; conditions: Plasmodium falciparum, 803, Erythrocyte
[8] = system: Plasmodium falciparum; experiment: Antimalarial activity against pyrimethamine/chloroquine resistant Plasmodium falciparum PC26 infected in human O+ erythrocytes incubated for 72 hrs by SYBR Green 1 dye based fluorescence assay; type: functional, organism-based; conditions: PC26, Erythrocyte
[9] = system: Plasmodium falciparum; experiment: Antimalarial activity against chloroquine resistant Plasmodium falciparum FAB9 infected in human O+ erythrocytes incubated for 72 hrs by SYBR Green 1 dye based fluorescence assay; type: functional, organism-based; conditions: FAB9, Erythrocyte
[10] = molecular target: Phosphatidylinositol 4-kinase beta (Homo sapiens, UniProt Q9UBF8); experiment: Inhibition of human PI4K3beta by ADP-Glo kinase assay
[11] = Inhibition of human PIK3C2alpha by ADP-Glo kinase assay
[12] = molecular target: Phosphatidylinositol 4,5-bisphosphate 3-kinase catalytic subunit beta isoform (Homo sapiens, UniProt P42338); experiment: Inhibition of human PI3Kbeta by ADP-Glo kinase assay
[13] = system: Plasmodium falciparum; experiment: Antimalarial activity against Plasmodium falciparum GB4 infected in human O+ erythrocytes incubated for 72 hrs by SYBR Green 1 dye based fluorescence assay; type: functional, organism-based; conditions: GB4, Erythrocyte
[14] = system: Plasmodium falciparum; experiment: Antimalarial activity against pyrimethamine/chloroquine resistant Plasmodium falciparum C2A infected in human O+ erythrocytes incubated for 72 hrs by SYBR Green 1 dye based fluorescence assay; type: functional, organism-based; conditions: Erythrocyte
[15] = molecular target: Phosphatidylinositol 4,5-bisphosphate 3-kinase catalytic subunit alpha isoform (Homo sapiens, UniProt P42336); experiment: Inhibition of human PI3Kalpha by ADP-Glo kinase assay
[16] = system: Plasmodium falciparum; experiment: Antimalarial activity against artemisinin and piperaquine-phosphate resistant Plasmodium falciparum 6320 infected in human O+ erythrocytes incubated for 72 hrs by SYBR Green 1 dye based fluorescence assay; type: functional, organism-based; conditions: Plasmodium falciparum, 6320, Erythrocyte
[17] = molecular target: Phosphatidylinositol 4-phosphate 3-kinase C2 domain-containing subunit beta (Homo sapiens, UniProt O00750); experiment: Inhibition of human PIK3C2beta by ADP-Glo kinase assay
[18] = molecular target: Phosphatidylinositol 4,5-bisphosphate 3-kinase catalytic subunit gamma isoform (Homo sapiens, UniProt P48736); experiment: Inhibition of human PI3Kgamma by ADP-Glo kinase assay
[19] = system: Plasmodium falciparum; experiment: Antimalarial activity against mefloquine/chloroquine/pyrimethamine resistant Plasmodium falciparum Dd2 infected in human O+ erythrocytes incubated for 72 hrs by SYBR Green 1 dye based fluorescence assay; type: functional, organism-based; conditions: Dd2, Erythrocyte
[20] = molecular target: T1, Phosphatidylinositol 4,5-bisphosphate 3-kinase catalytic subunit delta isoform (Homo sapiens, UniProt O00329); experiment: Inhibition of human PI3Kdelta by ADP-Glo kinase assay
T1 sequence (O00329 whole entry): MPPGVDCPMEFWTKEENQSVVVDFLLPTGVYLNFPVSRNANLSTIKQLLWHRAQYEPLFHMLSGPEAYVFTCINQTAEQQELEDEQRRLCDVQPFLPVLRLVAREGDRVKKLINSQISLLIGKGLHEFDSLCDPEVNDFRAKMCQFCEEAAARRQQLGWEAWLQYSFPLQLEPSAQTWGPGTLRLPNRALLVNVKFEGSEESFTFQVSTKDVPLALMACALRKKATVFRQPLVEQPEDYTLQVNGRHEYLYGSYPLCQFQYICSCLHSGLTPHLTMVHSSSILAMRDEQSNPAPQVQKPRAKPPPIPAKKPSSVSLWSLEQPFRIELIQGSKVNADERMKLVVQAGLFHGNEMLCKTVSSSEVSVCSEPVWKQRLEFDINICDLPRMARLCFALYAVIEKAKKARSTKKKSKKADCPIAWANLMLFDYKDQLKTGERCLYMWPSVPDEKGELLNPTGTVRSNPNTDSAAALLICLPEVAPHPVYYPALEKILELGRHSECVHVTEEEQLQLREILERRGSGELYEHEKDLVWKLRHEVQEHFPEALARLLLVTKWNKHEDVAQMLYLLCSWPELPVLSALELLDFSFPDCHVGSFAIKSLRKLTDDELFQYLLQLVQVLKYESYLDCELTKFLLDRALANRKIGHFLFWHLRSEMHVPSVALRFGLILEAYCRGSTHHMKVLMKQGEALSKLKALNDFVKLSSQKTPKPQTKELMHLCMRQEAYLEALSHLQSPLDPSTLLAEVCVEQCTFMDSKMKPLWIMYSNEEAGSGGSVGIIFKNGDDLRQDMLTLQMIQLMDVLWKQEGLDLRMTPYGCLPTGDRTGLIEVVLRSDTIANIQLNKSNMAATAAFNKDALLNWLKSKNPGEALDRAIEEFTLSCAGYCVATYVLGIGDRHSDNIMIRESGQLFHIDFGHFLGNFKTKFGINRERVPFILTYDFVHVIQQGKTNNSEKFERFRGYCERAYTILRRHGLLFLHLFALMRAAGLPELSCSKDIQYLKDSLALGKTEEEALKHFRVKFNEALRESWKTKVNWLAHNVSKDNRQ

Sequence of Phosphatidylinositol 4,5-bisphosphate 3-kinase catalytic subunit gamma isoform (P48736 whole entry, canonical isoform): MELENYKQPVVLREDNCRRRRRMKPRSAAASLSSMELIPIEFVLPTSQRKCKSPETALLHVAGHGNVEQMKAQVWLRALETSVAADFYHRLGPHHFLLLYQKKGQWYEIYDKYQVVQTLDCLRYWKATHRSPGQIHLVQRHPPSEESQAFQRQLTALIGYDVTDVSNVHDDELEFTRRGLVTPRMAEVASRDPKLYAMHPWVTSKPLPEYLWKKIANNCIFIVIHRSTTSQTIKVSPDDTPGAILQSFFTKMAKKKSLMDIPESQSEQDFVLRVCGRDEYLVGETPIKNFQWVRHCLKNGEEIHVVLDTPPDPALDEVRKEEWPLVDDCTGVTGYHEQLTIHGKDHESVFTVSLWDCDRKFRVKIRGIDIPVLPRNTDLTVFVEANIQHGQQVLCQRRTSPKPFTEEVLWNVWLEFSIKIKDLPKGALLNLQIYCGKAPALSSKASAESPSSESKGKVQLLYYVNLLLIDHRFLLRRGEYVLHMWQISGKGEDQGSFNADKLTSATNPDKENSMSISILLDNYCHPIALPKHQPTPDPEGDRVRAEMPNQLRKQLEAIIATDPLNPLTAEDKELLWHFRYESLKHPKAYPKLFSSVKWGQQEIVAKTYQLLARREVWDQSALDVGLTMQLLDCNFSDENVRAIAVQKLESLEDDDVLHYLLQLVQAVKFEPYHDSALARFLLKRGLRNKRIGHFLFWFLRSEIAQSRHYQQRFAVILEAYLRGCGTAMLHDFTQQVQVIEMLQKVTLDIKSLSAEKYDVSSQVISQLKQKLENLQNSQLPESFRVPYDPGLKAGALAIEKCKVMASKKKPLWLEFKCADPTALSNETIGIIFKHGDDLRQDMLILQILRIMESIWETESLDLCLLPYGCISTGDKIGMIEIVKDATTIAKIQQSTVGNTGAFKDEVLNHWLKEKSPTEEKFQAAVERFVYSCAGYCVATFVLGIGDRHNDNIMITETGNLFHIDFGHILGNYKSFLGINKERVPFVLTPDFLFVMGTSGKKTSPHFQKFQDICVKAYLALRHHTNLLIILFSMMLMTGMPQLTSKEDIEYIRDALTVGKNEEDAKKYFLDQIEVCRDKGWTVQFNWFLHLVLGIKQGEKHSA
Sequence of Phosphatidylinositol 4-kinase beta (Q9UBF8 whole entry): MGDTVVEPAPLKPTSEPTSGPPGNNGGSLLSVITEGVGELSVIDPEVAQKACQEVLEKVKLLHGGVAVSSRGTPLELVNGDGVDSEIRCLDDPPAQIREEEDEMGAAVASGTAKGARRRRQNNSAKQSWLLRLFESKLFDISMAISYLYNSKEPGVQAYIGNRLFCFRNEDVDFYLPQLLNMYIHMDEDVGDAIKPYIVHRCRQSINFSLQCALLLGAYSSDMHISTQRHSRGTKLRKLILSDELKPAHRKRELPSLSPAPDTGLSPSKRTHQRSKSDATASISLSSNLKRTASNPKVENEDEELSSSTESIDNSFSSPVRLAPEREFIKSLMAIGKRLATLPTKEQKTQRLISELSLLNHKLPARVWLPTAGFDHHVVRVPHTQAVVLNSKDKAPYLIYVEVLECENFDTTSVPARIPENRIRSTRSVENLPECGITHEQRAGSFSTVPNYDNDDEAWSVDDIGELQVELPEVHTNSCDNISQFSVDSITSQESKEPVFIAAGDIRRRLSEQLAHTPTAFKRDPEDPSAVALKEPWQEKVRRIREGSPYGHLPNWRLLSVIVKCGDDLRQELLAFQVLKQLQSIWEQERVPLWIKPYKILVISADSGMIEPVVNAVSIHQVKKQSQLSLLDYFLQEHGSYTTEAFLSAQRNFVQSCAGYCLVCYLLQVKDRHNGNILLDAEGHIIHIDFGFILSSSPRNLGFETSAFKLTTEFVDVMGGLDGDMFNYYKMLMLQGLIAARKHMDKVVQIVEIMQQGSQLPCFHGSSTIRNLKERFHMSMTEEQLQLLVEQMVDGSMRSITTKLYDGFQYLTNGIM
Sequence of Phosphatidylinositol 4,5-bisphosphate 3-kinase catalytic subunit beta isoform (P42338 whole entry, canonical isoform): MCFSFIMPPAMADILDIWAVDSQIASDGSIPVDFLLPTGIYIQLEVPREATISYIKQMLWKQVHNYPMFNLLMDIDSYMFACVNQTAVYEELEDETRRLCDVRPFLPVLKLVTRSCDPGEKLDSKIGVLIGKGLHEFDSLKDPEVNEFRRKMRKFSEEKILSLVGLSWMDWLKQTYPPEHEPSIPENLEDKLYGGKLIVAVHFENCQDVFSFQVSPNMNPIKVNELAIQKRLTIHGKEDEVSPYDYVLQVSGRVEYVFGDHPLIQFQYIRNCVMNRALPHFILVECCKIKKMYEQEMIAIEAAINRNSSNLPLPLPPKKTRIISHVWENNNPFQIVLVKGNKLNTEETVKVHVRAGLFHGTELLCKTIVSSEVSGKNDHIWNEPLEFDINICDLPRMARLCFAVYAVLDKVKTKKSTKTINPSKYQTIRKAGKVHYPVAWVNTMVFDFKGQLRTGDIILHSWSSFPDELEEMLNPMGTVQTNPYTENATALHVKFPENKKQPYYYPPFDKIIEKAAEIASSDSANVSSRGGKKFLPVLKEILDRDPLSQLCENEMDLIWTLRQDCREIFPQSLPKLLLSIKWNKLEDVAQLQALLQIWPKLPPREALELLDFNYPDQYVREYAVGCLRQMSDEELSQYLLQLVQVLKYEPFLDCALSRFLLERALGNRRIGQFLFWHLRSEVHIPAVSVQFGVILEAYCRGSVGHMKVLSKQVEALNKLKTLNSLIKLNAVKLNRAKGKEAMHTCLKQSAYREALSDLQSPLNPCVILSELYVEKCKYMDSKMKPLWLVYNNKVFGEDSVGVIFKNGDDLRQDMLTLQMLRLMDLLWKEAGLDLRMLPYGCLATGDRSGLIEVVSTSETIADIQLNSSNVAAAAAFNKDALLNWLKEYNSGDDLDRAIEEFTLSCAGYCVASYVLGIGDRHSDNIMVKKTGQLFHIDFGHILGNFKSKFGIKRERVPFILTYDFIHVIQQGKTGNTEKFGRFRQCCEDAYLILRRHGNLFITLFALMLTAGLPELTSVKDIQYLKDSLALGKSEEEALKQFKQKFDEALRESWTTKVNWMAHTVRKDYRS
Sequence of Phosphatidylinositol 4-kinase alpha (P42356 whole entry): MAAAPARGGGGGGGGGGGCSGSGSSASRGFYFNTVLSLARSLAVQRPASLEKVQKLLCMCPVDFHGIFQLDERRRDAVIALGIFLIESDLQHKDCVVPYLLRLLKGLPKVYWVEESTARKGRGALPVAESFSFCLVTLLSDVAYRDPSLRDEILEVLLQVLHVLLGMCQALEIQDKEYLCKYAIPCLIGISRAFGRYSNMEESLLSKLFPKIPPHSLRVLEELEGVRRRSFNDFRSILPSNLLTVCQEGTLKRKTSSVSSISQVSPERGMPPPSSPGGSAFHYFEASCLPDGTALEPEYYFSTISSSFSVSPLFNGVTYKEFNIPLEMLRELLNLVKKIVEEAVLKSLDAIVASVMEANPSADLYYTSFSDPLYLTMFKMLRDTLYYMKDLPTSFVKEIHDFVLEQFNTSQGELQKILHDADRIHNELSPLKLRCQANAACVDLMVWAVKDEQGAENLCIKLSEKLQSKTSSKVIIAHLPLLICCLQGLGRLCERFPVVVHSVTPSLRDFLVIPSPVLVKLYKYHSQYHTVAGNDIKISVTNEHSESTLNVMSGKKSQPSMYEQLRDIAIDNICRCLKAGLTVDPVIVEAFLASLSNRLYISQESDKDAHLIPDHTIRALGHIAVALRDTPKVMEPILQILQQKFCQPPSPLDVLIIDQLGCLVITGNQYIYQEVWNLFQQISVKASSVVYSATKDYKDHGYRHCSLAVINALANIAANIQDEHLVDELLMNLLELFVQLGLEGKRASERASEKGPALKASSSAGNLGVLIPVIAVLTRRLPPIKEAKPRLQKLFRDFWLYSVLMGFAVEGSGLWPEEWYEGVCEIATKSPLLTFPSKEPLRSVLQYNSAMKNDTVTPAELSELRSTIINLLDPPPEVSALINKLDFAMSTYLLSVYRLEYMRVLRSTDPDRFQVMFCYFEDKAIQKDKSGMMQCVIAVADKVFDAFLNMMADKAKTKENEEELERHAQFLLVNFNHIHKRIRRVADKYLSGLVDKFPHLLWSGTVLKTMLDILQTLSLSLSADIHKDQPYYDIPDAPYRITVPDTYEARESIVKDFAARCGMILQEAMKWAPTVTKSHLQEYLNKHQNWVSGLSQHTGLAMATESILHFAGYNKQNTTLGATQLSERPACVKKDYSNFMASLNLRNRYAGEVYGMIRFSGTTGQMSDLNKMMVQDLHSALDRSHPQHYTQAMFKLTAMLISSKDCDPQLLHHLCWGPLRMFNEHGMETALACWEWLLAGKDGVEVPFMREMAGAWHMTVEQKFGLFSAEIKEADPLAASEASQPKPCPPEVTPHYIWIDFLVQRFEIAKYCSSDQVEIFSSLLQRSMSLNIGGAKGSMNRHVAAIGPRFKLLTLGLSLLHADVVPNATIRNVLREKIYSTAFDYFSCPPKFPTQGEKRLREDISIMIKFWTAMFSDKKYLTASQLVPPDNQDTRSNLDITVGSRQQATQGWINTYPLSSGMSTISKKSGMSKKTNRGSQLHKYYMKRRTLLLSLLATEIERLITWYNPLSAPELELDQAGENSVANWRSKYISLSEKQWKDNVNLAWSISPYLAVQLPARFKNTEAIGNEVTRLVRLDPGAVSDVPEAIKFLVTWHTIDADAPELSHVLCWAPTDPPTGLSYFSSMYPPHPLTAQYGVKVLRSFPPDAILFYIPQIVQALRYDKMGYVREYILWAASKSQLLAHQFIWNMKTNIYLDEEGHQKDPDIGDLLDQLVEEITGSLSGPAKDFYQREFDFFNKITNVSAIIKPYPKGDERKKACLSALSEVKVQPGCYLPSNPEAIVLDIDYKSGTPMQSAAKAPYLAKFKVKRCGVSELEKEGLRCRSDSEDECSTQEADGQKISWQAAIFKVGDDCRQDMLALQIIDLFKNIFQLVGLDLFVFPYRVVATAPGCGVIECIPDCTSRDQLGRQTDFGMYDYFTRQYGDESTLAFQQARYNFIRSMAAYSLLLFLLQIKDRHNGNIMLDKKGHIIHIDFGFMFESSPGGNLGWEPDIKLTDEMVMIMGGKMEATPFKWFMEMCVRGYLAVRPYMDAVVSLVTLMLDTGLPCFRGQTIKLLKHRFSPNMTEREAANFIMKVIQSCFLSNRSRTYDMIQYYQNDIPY

Structure (SMILES)	EC50 [1]	IC50 [2]	further results
C[C@H](CN)NC(=O)c1cncc(-c2cnc(Cl)c(NS(=O)(=O)c3ccccc3)c2)c1	> 10000 nM	> 40 nM	
CNC(=O)c1cncc(-c2cnc(Cl)c(NS(=O)(=O)c3ccc(-c4ccccc4)cc3)c2)c1	5880 nM	8.8 nM	
CNC(=O)c1cc(-c2cnc(Cl)c(NS(=O)(=O)c3ccccc3)c2)c[nH]1	> 10000 nM	> 156 nM	
CNC(=O)c1cncc(-c2cnc(Cl)c(NS(=O)(=O)c3ccc(C(F)(F)F)cc3)c2)c1	130 nM	> 156 nM	
CNC(=O)c1ccc(-c2cnc3cnc(C(=O)N(C)c4ccc(Cl)cc4)cn23)cc1	41.1 nM	1.6 nM	EC50 [3]: 31.9 nM; IC50 [4]: 1420 nM; IC50 [5]: 9200 nM; EC50 [6]: 43.9 nM; EC50 [7]: 41.8 nM; EC50 [8]: 54.9 nM; EC50 [9]: 44.8 nM; IC50 [10]: > 10000 nM; IC50 [11]: > 10000 nM; IC50 [12]: 2730 nM; EC50 [13]: 39.2 nM; EC50 [14]: 33.7 nM; IC50 [15]: > 10000 nM; EC50 [16]: 33.6 nM; IC50 [17]: > 10000 nM; IC50 [18]: 5920 nM; EC50 [19]: 46.7 nM; IC50 [20]: 3100 nM
O=C(Nc1ccc(F)cc1)c1cncc(-c2cnc(Cl)c(NS(=O)(=O)c3ccccc3)c2)c1	> 10000 nM	> 156 nM	
O=C(Nc1cccc(F)c1)c1cncc(-c2cnc(Cl)c(NS(=O)(=O)c3ccccc3)c2)c1	> 10000 nM	> 156 nM	
CNC(=O)c1cc(-c2cnc(Cl)c(NS(=O)(=O)c3ccccc3)c2)ccn1	> 10000 nM	> 156 nM	
CNC(=O)c1cncc(-c2cnc(Cl)c(NS(=O)(=O)c3ccc(Cl)cc3Cl)c2)c1	120 nM	1.2 nM	
Cn1cc(-c2cnc(Cl)c(NS(=O)(=O)c3ccccc3)c2)cn1	1490 nM	10 nM	
O=S(=O)(Nc1cc(-c2ccncc2)cnc1Cl)c1ccccc1	> 10000 nM	> 156 nM	
NCCNC(=O)c1cncc(-c2cnc(Cl)c(NS(=O)(=O)c3ccccc3)c2)c1	130 nM	13.8 nM	
CNC(=O)c1cncc(-c2cnc(Cl)c(NS(=O)(=O)c3ccc(C)cc3C)c2)c1	39 nM	2.2 nM	
CN(C)[C@H]1CCN(C(=O)c2cncc(-c3cnc(Cl)c(NS(=O)(=O)c4ccccc4)c3)c2)C1	> 10000 nM	> 156 nM	
CC(=O)n1ccc2cc(-c3cnc(Cl)c(NS(=O)(=O)c4ccccc4)c3)cnc21	1050 nM	8.1 nM	
CNC(=O)c1cccc(-c2cnc(Cl)c(NS(=O)(=O)c3ccccc3)c2)c1	> 10000 nM	> 156 nM	

Structure (SMILES)	EC50 [1]	IC50 [2]	further results
CNC(=O)c1cncc(-c2cnc(Cl)c(NC(=O)c3ccccc3)c2)c1	> 10000 nM	> 156 nM	
O=C(NCc1ccccc1)c1cncc(-c2cnc(Cl)c(NS(=O)(=O)c3ccccc3)c2)c1	3570 nM	8.5 nM	
CNC(=O)c1cncc(-c2cnc(Cl)c(NS(=O)(=O)c3cccc(C(F)(F)F)c3)c2)c1	3500 nM	2.5 nM	
O=S(=O)(Nc1cc(-c2cnc3[nH]ncc3c2)cnc1Cl)c1ccccc1	4670 nM	5.6 nM	
O=S(=O)(Nc1cc(-c2cnc3[nH]ccc3c2)cnc1Cl)c1ccccc1	3940 nM	7.7 nM	
CNC(=O)c1cncc(-c2cnc(Cl)c(NS(=O)(=O)c3ccc(Cl)cc3)c2)c1	71 nM	1.6 nM	
CCNC(=O)c1cncc(-c2cnc(Cl)c(NS(=O)(=O)c3ccccc3)c2)c1	120 nM	2.3 nM	
CNC(=O)c1cncc(-c2cnc(Cl)c(NS(=O)(=O)c3ccccc3C(F)(F)F)c2)c1	87 nM	0.5 nM	
CNC(=O)c1cncc(-c2cnc(Cl)c(NS(=O)(=O)c3ccc(F)cc3F)c2)c1	3400 nM	0.4 nM	
CCS(=O)(=O)Nc1cc(-c2cncc(C(=O)NC)c2)cnc1Cl	3500 nM	52.6 nM	
O=S(=O)(Nc1cc(-c2cccnc2)cnc1Cl)c1ccccc1	4710 nM	12.7 nM	
CCCS(=O)(=O)Nc1cc(-c2cncc(C(=O)NC)c2)cnc1Cl	480 nM	13.2 nM	
CNC(=O)c1cncc(-c2cnc(Cl)c(NS(=O)(=O)c3ccc(C)cc3)c2)c1	39 nM	1.2 nM	
CNC(=O)c1cncc(-c2cnc(Cl)c(NS(=O)(=O)c3ccc4c(c3)CCO4)c2)c1	340 nM	4.5 nM	
O=C(Nc1ccccc1)c1cncc(-c2cnc(Cl)c(NS(=O)(=O)c3ccccc3)c2)c1	3680 nM	145 nM	
CNC(=O)c1cncc(-c2cnc(Cl)c(NS(=O)(=O)c3cccc(-c4ccccc4)c3)c2)c1	7700 nM	7.5 nM	
